Measurements as given in publication PMC5403781, “Heterologous expression of a Streptomyces cyaneus laccase for biomass modification applications” (AMB Express, 2017).
Like-named read-outs stand apart in the source and are kept apart here. Blank lines part the entries; values can stand above or below the compound they belong to.

Assays:
ScLac [1] = conditions: read-out: ABTS; 100 mM MES pH 5.5, 30 °C; free enzyme, copper-loaded; substrate 5–95 µM
ScLac [2] = test system: T1, ScLac; test: spectrophotometric oxidation, […] nm; assay type: biochemical, Streptomyces cyaneus; conditions: 100 mM MES pH 5.5, 30 °C; free enzyme, copper-loaded; substrate 5–95 µM; read-out: DMP
T1 construct: C-terminal His6 tag (pET-22b(+), NdeI/XhoI), expressed in E. coli BL21 (DE3) Star; primers encode N-terminus METDIIER and C-terminal HGAGHTG before the LE-His6 tag; copper-loaded with CuSO4 after purification

ScLac [3] = test system: T1, ScLac; test: spectrophotometric oxidation, […] nm; assay type: biochemical, Streptomyces cyaneus; conditions: 100 mM MES pH 5.5, 30 °C; free enzyme, copper-loaded; substrate 5–95 µM; read-out: Guaiacol

- Km (ScLac [1]): 33.5 ± 27.9 µM
Compound: CCn1c(=NN=c2sc3cc(S(=O)(=O)O)ccc3n2CC)sc2cc(S(=O)(=O)O)ccc21 [ABTS]

- Km (ScLac [2]): 202 ± 34.8 µM
Compound: COc1cccc(OC)c1O [DMP, 2,6-dimethoxyphenol]

- Km (ScLac [3]): 5.4 ± 1.9 µM
Compound: COc1ccccc1O [guaiacol]
